Reference: ChEMBL document CHEMBL1201862, “PubChem BioAssay data set” (2004)
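These data come from cells grown in 96-well plates and exposed to compound for 48 hours at five concentrations. GI50 is the concentration that inhibits growth by half.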 Calls of active or inactive are those of the source. Cut-off read from the data, not from the text of the source: active = GI50 up to about 1.1 µM and inactive = higher.

What was measured:
Assay in all cases: inhibition of tumour cell growth, NCI panel, 48 h
HCT-15 = test system: HCT-15
K562 = test system: K562
U-251 = test system: U-251
SK-MEL-28 = test system: SK-MEL-28
SF-295 = test system: SF-295
PC-3 = test system: PC-3
NCI-H226 = test system: NCI-H226
786-0 = test system: 786-0
NCI-H23 = test system: NCI-H23
TK-10 = test system: TK-10
SK-OV-3 = test system: SK-OV-3
KM12 = test system: KM12
NCI-H460 = test system: NCI-H460
CCRF-CEM = test system: CCRF-CEM
HOP-62 = test system: HOP-62
SR = test system: SR
HOP-92 = test system: HOP-92
RXF 393 = test system: RXF 393
A498 = test system: A498
UACC-62 = test system: UACC-62

Compound | GI50 (HCT-15) | GI50 (K562) | GI50 (U-251) | GI50 (SK-MEL-28) | GI50 (SF-295) | GI50 (PC-3) | GI50 (NCI-H226) | GI50 (786-0) | GI50 (NCI-H23) | GI50 (TK-10) | GI50 (SK-OV-3) | GI50 (KM12) | GI50 (NCI-H460) | GI50 (CCRF-CEM) | GI50 (HOP-62) | GI50 (SR) | GI50 (HOP-92) | GI50 (RXF 393) | GI50 (A498) | GI50 (UACC-62)
CCNC1=C(NC(=O)CCl)C(=O)c2ccccc2C1=O | 18.5 µM | 25.5 µM (inactive) | 20.3 µM (inactive) | 17.6 µM (inactive) | 19.4 µM (inactive) | 16 µM (inactive) | 22 µM (inactive) | 34.4 µM (inactive) | 19 µM (inactive) | 17.7 µM (inactive) | > 10 µM (inactive) | 17.1 µM (inactive) | 23.7 µM (inactive) | 20 µM (inactive) | 16.5 µM (inactive) | 32.8 µM (inactive) | 21 µM (inactive) | 16.7 µM (inactive) | – | –
CN1CCN(c2ccncc2S(=O)(=O)N2CCN(C)CC2)CC1 | > 100 µM | > 100 µM (inactive) | > 100 µM (inactive) | > 100 µM (inactive) | > 100 µM (inactive) | > 100 µM (inactive) | > 100 µM (inactive) | > 100 µM (inactive) | > 100 µM (inactive) | > 100 µM (inactive) | > 100 µM (inactive) | > 100 µM (inactive) | > 100 µM (inactive) | – | > 100 µM (inactive) | – | > 100 µM (inactive) | > 100 µM (inactive) | > 100 µM (inactive) | > 100 µM (inactive)
O=C1NC(=S)NC(=O)C1C(c1ccc([N+](=O)[O-])cc1)C1C(=O)NC(=S)NC1=O.c1ccncc1 | > 100 µM | > 100 µM (inactive) | > 100 µM (inactive) | > 100 µM (inactive) | > 100 µM (inactive) | > 100 µM (inactive) | > 100 µM (inactive) | > 100 µM (inactive) | > 100 µM (inactive) | > 100 µM (inactive) | – | > 100 µM (inactive) | > 100 µM (inactive) | > 100 µM (inactive) | > 100 µM (inactive) | – | > 100 µM (inactive) | > 100 µM (inactive) | > 100 µM (inactive) | > 100 µM (inactive)
C=C1C(C)C2C(Cc3ccccc3)NC(=O)C23C(OC(C)=O)C=CC(C)(O)C(=O)C(C)C/C=C/C3C1O (stereo not given) | – | 33.1 µM (inactive) | 0.0925 µM (active) | 2.47 µM (inactive) | 0.366 µM (active) | 11.7 µM (inactive) | 3.85 µM (inactive) | 0.311 µM (active) | 12.9 µM (inactive) | 0.505 µM (active) | 0.752 µM (active) | 90.8 µM (inactive) | 0.258 µM (active) | 4.24 µM (inactive) | 0.0678 µM (active) | 3.3 µM (inactive) | 0.569 µM (active) | 0.0865 µM (active) | – | 3.36 µM (inactive)
COC(=O)[C@@H]1C[C@H]2OC(=O)CC[C@]2(C)O[C@H]1[C@H]1O[C@@](C)(O)CCC[C@H]1C | > 50 µM | > 50 µM (inactive) | > 50 µM (inactive) | > 50 µM (inactive) | > 50 µM (inactive) | > 50 µM (inactive) | > 50 µM (inactive) | > 50 µM (inactive) | > 50 µM (inactive) | > 50 µM (inactive) | > 50 µM (inactive) | > 50 µM (inactive) | > 50 µM (inactive) | 14.5 µM (inactive) | > 50 µM (inactive) | > 50 µM (inactive) | – | > 50 µM (inactive) | – | > 50 µM (inactive)
CCOC(=O)C1=CC(C)(C(=O)OCC)Nc2c(nc(SC)[nH]c2=O)N1 (stereo not given) | > 10 µM | > 10 µM (inactive) | > 10 µM (inactive) | > 10 µM (inactive) | > 10 µM (inactive) | > 10 µM (inactive) | > 10 µM (inactive) | > 10 µM (inactive) | > 10 µM (inactive) | > 10 µM (inactive) | > 10 µM (inactive) | > 10 µM (inactive) | > 10 µM (inactive) | > 10 µM (inactive) | > 10 µM (inactive) | – | > 10 µM (inactive) | > 10 µM (inactive) | > 10 µM (inactive) | –
COC(=O)c1ccc2c(c1)sc1nc(-c3ccc(OC)cc3)cn12 | > 100 µM | 38.2 µM (inactive) | 31.7 µM (inactive) | > 100 µM (inactive) | > 100 µM (inactive) | > 100 µM (inactive) | > 100 µM (inactive) | > 100 µM (inactive) | > 100 µM (inactive) | > 100 µM (inactive) | > 100 µM (inactive) | 56.1 µM (inactive) | > 100 µM (inactive) | 39.9 µM (inactive) | > 100 µM (inactive) | – | 24.7 µM (inactive) | 69.8 µM (inactive) | > 100 µM (inactive) | > 100 µM (inactive)
O=[N+]([O-])c1ccc(Cl)cc1N/N=C/c1ccnc2ccccc12 | > 100 µM | > 100 µM (inactive) | 17.5 µM (inactive) | > 100 µM (inactive) | > 100 µM (inactive) | > 100 µM (inactive) | > 100 µM (inactive) | > 100 µM (inactive) | > 100 µM (inactive) | > 100 µM (inactive) | > 100 µM (inactive) | > 100 µM (inactive) | > 100 µM (inactive) | > 100 µM (inactive) | > 100 µM (inactive) | > 100 µM (inactive) | – | 36.9 µM (inactive) | – | > 100 µM (inactive)
CCOc1ccc(NCc2cc(OC)c(OC)c(OC)c2)cc1 | 0.335 µM | 0.215 µM (active) | 0.513 µM (active) | 2.57 µM (inactive) | 0.306 µM (active) | 1.5 µM (inactive) | 10.3 µM (inactive) | 0.723 µM (active) | 1.24 µM (inactive) | – | 0.706 µM (active) | 0.276 µM (active) | 0.499 µM (active) | – | 0.753 µM (active) | 0.256 µM (active) | 5.43 µM (inactive) | – | – | 0.423 µM (active)
O=C1Cc2c([nH]c3ccc(Br)cc23)-c2cc(O)c(O)cc2N1 | > 100 µM | > 100 µM (inactive) | > 100 µM (inactive) | > 100 µM (inactive) | > 100 µM (inactive) | > 100 µM (inactive) | > 100 µM (inactive) | > 100 µM (inactive) | > 100 µM (inactive) | > 100 µM (inactive) | > 100 µM (inactive) | > 100 µM (inactive) | > 100 µM (inactive) | – | > 100 µM (inactive) | – | > 100 µM (inactive) | > 100 µM (inactive) | > 100 µM (inactive) | > 100 µM (inactive)
C1CCNCC1.O=C1NC(=S)N/C1=C/c1ccccc1O | > 100 µM | – | > 100 µM (inactive) | > 100 µM (inactive) | > 100 µM (inactive) | > 100 µM (inactive) | > 100 µM (inactive) | > 100 µM (inactive) | > 100 µM (inactive) | > 100 µM (inactive) | > 100 µM (inactive) | – | – | > 100 µM (inactive) | > 100 µM (inactive) | > 100 µM (inactive) | > 100 µM (inactive) | > 100 µM (inactive) | – | > 100 µM (inactive)
